Measured values reported in article PMC5735191, “Computational and biological profile of boronic acids for the detection of bacterial serine- and metallo-β-lactamases” (Scientific Reports, 2017).
Values joined by “and” are separate entries in the source; they are usually repeats but may differ in a detail not shown here. Equal entries are not always repeated.

Legend:
NDM-1 = NDM-1 (Klebsiella pneumoniae, UniProt C7C422); test: Enzyme inhibition assay (spectrophotometric, cephalothin reporter substrate); type: biochemical; design: His-tag; made in house; host or cells: E. coli BL21(DE3), pET-15-NDM-1; conditions: mean of two replicates, five inhibitor concentrations, Dixon plot; pH 7.5, 25 °C
Method: (§1) To obtain a well-characterized inhibition profile for each selected boronic acids against each BLs in the panel, the compounds were tested for inhibitory activity. The protein panel included clinically- and epidemiologically-relevant β-lactamases, representatives of each structural class (A to D), as mentioned above. Each BL was overexpressed in E. coli, purified by chromatography and characterized as already reported. (SI, Table S1)[40]–[45].
(§2) Reactions were initiated with addition of BL enzyme (the concentration values for each BL enzyme into the SI, Table S1 have been reported).

[1] = tested on: P. aeruginosa 49, overproduction chromosomal AmpC; test: Susceptibility testing (MIC), synergy with ceftazidime; type: cell-based; conditions: antibiotic:inhibitor 1:1 (w/w)
Method: (§3) The minimum inhibitory concentrations (MICs), for CAZ and CTX alone and in combination with boronic acids against resistant strains were determined (Table 2a,b).
(§4) Susceptibility testing was performed in Mueller Hinton broth and interpreted following the guidelines of the National Committee for Clinical Laboratory Standards[70]. To test the inhibitory activity, the compounds were dissolved in DMSO, 50% in water, and further dilutions were performed using growth medium. In all cases tests were performed at a final DMSO concentration below 5%, avoiding unwanted DMSO inhibition effect on strains growth (blank test control with DMSO were performed). The MICs of cefotaxime and ceftazidime alone and in association were determined against several relevant Gram-negative clinical isolates, selected from the pathogen collection of the Spanish Network for Research in Infectious Pathology (REIPI; Spain). The selection was based on strains capability of producing β-lactamases of interest for the present study. The antibiotic:inhibitor ratio was 1:1 (w/w).

[2] = tested on: P. aeruginosa 199, overproduction chromosomal AmpC; test: as above; type: cell-based; conditions: antibiotic:inhibitor 1:1 (w/w)
Method: as §3, §4

[3] = tested on: E. coli clinical isolate, plasmidic AmpC - DHA1; test: as above; type: cell-based; conditions: for MIC of ceftazidime (CAZ) in combination with compound: E. coli, plasmidic AmpC - DHA1, antibiotic:inhibitor 1:1 (w/w)
Method: as §3, §4

[4] = tested on: P. aeruginosa 148, overproduction chromosomal AmpC; test: as above; type: cell-based; conditions: antibiotic:inhibitor 1:1 (w/w)
Method: as §3, §4

[5] = tested on: E. cloacae clinical isolate, overproduction chromosomal AmpC; test: as above; type: cell-based; conditions: for MIC of ceftazidime (CAZ) in combination with compound: overproduction chromosomal AmpC, antibiotic:inhibitor 1:1 (w/w)
Method: as §3, §4

[6] = tested on: E. aerogenes clinical isolate, overproduction chromosomal AmpC; test: as above; type: cell-based; conditions: antibiotic:inhibitor 1:1 (w/w)
Method: as §3, §4

[7] = tested on: P. aeruginosa 12, overproduction chromosomal AmpC; test: as above; type: cell-based; conditions: antibiotic:inhibitor 1:1 (w/w)
Method: as §3, §4

[8] = tested on: P. aeruginosa 120, overproduction chromosomal AmpC; test: as above; type: cell-based; conditions: antibiotic:inhibitor 1:1 (w/w)
Method: as §3, §4

[9] = tested on: E. coli clinical isolate, overproduction chromosomal AmpC; test: as above; type: cell-based; conditions: antibiotic:inhibitor 1:1 (w/w)
Method: as §3, §4

KPC-2 = biological target: T1, KPC-2 (Klebsiella pneumoniae, UniProt Q9F663); test: Enzyme inhibition assay (spectrophotometric, cephalothin reporter substrate); type: biochemical; conditions: mean of two replicates, five inhibitor concentrations, Dixon plot; pH 7.5, 25 °C
T1 construct: made in house; host or cells: E. coli BL21(DE3), pET9-KPC2
Method: as §1, §2

[10] = tested on: VIM-2 P. aeruginosa clinical isolate; test: Susceptibility testing (MIC), synergy with cefotaxime; type: cell-based; conditions: antibiotic:inhibitor 1:1 (w/w)
Method: as §3, §4

[11] = tested on: KPC-2 K. pneumoniae clinical isolate; test: as above; type: cell-based; conditions: for MIC of cefotaxime (CTX) in combination with compound: KPC-2 K. pneumoniae, antibiotic:inhibitor 1:1 (w/w)
Method: as §3, §4

[12] = tested on: OXA-24 A. baumanii clinical isolate; test: as above; type: cell-based; conditions: antibiotic:inhibitor 1:1 (w/w)
Method: as §3, §4

[13] = tested on: NDM-1 E. coli clinical isolate; test: as above; type: cell-based; conditions: antibiotic:inhibitor 1:1 (w/w)
Method: as §3, §4

[14] = tested on: CTX-M-15 E. coli clinical isolate; test: as above; type: cell-based; conditions: CTX-M-15 E. coli; antibiotic:inhibitor 1:1 (w/w)
Method: as §3, §4

VIM-2 = VIM-2 (Escherichia coli, UniProt Q5U7L7); test: Enzyme inhibition assay (spectrophotometric, cephalothin reporter substrate); type: biochemical; design: made in house; host or cells: E. coli BL21(DE3), pET9-VIM-2; conditions: mean of two replicates, five inhibitor concentrations, Dixon plot; pH 7.5, 25 °C
Method: as §1, §2

AmpC β-lactamase = biological target: T2, AmpC β-lactamase (Pseudomonas aeruginosa, UniProt P24735); test: as above; type: biochemical, P. aeruginosa; conditions: mean of two replicates, five inhibitor concentrations, Dixon plot, 100 μM cephalothin, pH 7.5, 25 °C
T2 construct: made in house; host or cells: E. coli BL21(DE3), plasmid pET-9aAmpC
Method: as §1, §2
(§5) From the resulting inhibition percentages at each different inhibitor concentration and, assuming a competitive inhibition for the boronic compounds panel, it was possible to calculate the IC50 values from the Dixon plot 1/V vs [I], using the equation IC50 = […][61], where v0 is the rate of hydrolysis of the reporter substrate (v0 being the rate measured in the absence of inhibitor), q the y axis intercept and m the slope of the resulting linear regression.

OXA-24 = biological target: T3, OXA-24 (Acinetobacter baumannii, UniProt Q8RLA6); test: as above; type: biochemical
T3 construct: GST (N, cleaved yes); made in house; host or cells: E. coli DH5α, pGEX-2T-OXA-24
Method: as §1, §2, §5

CTX-M-15 = biological target: T4, CTX-M-15 (Escherichia coli, UniProt Q9EXV5); test: as above; type: biochemical; conditions: IC50 CTX-M-15, mean of two replicates, five inhibitor concentrations, Dixon plot; pH 7.5, 25 °C
T4 construct: made in house; host or cells: E. coli BL21(DE3), pET-9a derivative (pET-CTX-M-15)
Method: as §1, §2, §5

NDM-1, sequence (C7C422 29-270 limits assumed): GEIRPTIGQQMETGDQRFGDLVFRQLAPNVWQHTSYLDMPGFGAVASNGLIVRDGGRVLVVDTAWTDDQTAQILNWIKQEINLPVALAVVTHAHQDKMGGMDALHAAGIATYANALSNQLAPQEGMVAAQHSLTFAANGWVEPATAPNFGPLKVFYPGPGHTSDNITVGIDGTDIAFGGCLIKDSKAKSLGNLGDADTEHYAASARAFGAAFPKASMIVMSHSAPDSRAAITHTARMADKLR
T1 sequence (Q9F663 25-293 limits assumed): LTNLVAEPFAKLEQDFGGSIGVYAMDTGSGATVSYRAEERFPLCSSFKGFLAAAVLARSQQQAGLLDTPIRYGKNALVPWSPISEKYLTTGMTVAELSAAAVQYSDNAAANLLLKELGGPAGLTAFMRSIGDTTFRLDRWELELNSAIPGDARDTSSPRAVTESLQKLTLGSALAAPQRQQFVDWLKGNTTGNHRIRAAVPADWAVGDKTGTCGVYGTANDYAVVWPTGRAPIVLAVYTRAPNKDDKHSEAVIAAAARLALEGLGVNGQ
T4 sequence (Q9EXV5 entry or part of it): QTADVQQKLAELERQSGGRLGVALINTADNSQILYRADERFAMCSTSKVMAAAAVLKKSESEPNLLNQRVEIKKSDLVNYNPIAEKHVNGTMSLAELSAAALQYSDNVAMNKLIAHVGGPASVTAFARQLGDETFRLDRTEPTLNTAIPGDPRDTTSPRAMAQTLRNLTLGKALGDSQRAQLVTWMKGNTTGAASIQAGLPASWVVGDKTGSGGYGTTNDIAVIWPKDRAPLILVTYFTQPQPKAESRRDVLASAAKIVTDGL
T2 sequence (P24735 27-397): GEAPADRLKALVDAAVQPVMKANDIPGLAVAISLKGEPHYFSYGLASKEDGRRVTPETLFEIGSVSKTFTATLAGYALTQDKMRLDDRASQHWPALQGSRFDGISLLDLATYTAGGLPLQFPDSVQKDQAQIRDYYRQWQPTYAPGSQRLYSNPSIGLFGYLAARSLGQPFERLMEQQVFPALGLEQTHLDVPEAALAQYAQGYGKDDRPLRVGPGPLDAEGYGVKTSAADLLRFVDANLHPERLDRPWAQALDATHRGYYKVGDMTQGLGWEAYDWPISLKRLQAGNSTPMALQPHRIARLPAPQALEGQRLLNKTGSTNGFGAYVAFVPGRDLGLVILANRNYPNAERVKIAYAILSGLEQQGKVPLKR
T3 sequence (Q8RLA6 22-275 limits assumed): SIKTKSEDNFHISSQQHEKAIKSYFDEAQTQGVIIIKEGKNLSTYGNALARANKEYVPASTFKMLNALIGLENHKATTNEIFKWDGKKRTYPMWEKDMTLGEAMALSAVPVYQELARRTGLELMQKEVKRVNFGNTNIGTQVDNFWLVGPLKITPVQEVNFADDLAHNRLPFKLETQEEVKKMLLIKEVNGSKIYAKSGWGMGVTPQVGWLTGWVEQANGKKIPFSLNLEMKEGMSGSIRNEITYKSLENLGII

SMILES: Cc1ccc2sc(B3OC(C)(C)C(C)(C)O3)cc2c1 [Compound 1]
- IC50 (NDM-1): 68.4 ± 14 µM
- MIC of ceftazidime (CAZ) in combination with compound [1]: 4 mg/L
- MIC of ceftazidime (CAZ) in combination with compound [2]: 16 mg/L
- MIC reduction of CAZ (fold) ([3]; DHA-1-producing E. coli strain, CAZ combination): 8 fold
- MIC of ceftazidime (CAZ) in combination with compound [3]: 64 mg/L
- MIC of ceftazidime (CAZ) in combination with compound [4]: 8 mg/L
- MIC decrease of CAZ (fold) / synergy ([5]; CAZ combination): 4 fold
- MIC of ceftazidime (CAZ) in combination with compound [5]: 64 mg/L
- MIC of ceftazidime (CAZ) in combination with compound [6]: 4 mg/L
- MIC of ceftazidime (CAZ) in combination with compound [7]: 4 mg/L
- MIC of ceftazidime (CAZ) in combination with compound [8]: 4 mg/L
- MIC of ceftazidime (CAZ) in combination with compound [9]: 16 mg/L
- IC50 (KPC-2): 5.9 ± 1.64 µM
- MIC of cefotaxime (CTX) in combination with compound [10]: 1024 mg/L
- MIC reduction of CTX (fold) ([11]; K. pneumoniae producing KPC-2, CTX combination): 32 fold
- MIC of cefotaxime (CTX) in combination with compound [11]: 4 mg/L
- MIC of cefotaxime (CTX) in combination with compound [12]: 64 mg/L
- MIC of cefotaxime (CTX) in combination with compound [13]: 1024 mg/L
- MIC of cefotaxime (CTX) in combination with compound [14]: 64 mg/L
- IC50 (VIM-2): 72 ± 14.7 µM
- IC50 (AmpC β-lactamase): 0.4 ± 0.08 µM
- IC50 (OXA-24): 113 ± 14.6 µM
- IC50 (CTX-M-15): 6.4 ± 1.52 µM

SMILES: CC1(C)OB(c2cc3cc(CBr)ccc3s2)OC1(C)C [Compound 2]
- IC50 (NDM-1): 64.6 ± 7.88 µM
- MIC of ceftazidime (CAZ) in combination with compound [1]: 4 mg/L
- MIC of ceftazidime (CAZ) in combination with compound [2]: 16 mg/L
- MIC of ceftazidime (CAZ) in combination with compound [3]: 32 mg/L
- MIC of ceftazidime (CAZ) in combination with compound [4]: 8 mg/L
- MIC of ceftazidime (CAZ) in combination with compound [6]: 4 mg/L
- MIC of ceftazidime (CAZ) in combination with compound [7]: 4 mg/L
- MIC of ceftazidime (CAZ) in combination with compound [8]: 2 mg/L
- MIC of ceftazidime (CAZ) in combination with compound [9]: 16 mg/L
- IC50 (KPC-2): 4.7 ± 2.04 µM
- MIC of cefotaxime (CTX) in combination with compound [11]: 4 mg/L
- MIC of cefotaxime (CTX) in combination with compound [12]: 64 mg/L
- MIC of cefotaxime (CTX) in combination with compound [13]: 1024 mg/L
- MIC of cefotaxime (CTX) in combination with compound [14]: 64 mg/L
- IC50 (VIM-2): 83.5 ± 3.35 µM
- IC50 (AmpC β-lactamase): 0.2 ± 0.04 µM
- IC50 (OXA-24): 93 ± 18.4 µM
- IC50 (CTX-M-15): 8.3 ± 1.09 µM

SMILES: NCc1ccc2sc(B(O)O)cc2c1 [Compound 3]
- IC50 (NDM-1): 60.7 ± 11.8 µM
- MIC of ceftazidime (CAZ) in combination with compound [1]: 64 mg/L
- MIC of ceftazidime (CAZ) in combination with compound [2]: 64 mg/L
- MIC of ceftazidime (CAZ) in combination with compound [3]: 512 mg/L
- MIC of ceftazidime (CAZ) in combination with compound [4]: 4 mg/L
- MIC of ceftazidime (CAZ) in combination with compound [5]: 64 mg/L
- MIC of ceftazidime (CAZ) in combination with compound [7]: 64 mg/L
- MIC of ceftazidime (CAZ) in combination with compound [8]: 4 mg/L
- MIC of ceftazidime (CAZ) in combination with compound [9]: 16 mg/L
- IC50 (KPC-2): 7.3 ± 1.82 µM
- MIC of cefotaxime (CTX) in combination with compound [10]: 8 mg/L
- MIC of cefotaxime (CTX) in combination with compound [11]: 4 mg/L
- MIC of cefotaxime (CTX) in combination with compound [12]: 64 mg/L
- MIC of cefotaxime (CTX) in combination with compound [13]: 32 mg/L
- MIC of cefotaxime (CTX) in combination with compound [14]: 64 mg/L
- IC50 (VIM-2): 26.9 ± 7.07 µM
- IC50 (AmpC β-lactamase): 0.16 ± 0.06 µM
- IC50 (OXA-24): 132 ± 20.9 µM
- IC50 (CTX-M-15): 5.2 ± 1.42 µM

SMILES: CC(C)(C)OC(=O)c1cccc2cc(B3OC(C)(C)C(C)(C)O3)sc12 [Compound 4]
- IC50 (NDM-1): 35.7 ± 7.46 µM
- MIC of ceftazidime (CAZ) in combination with compound [1]: 64 mg/L
- MIC of ceftazidime (CAZ) in combination with compound [2]: 64 mg/L
- MIC of ceftazidime (CAZ) in combination with compound [3]: 512 mg/L
- MIC of ceftazidime (CAZ) in combination with compound [4]: 32 mg/L
- MIC of ceftazidime (CAZ) in combination with compound [7]: 32 mg/L
- MIC of ceftazidime (CAZ) in combination with compound [8]: 4 mg/L
- MIC of ceftazidime (CAZ) in combination with compound [9]: 512 mg/L
- IC50 (KPC-2): 8.22 µM and 5.4 µM
- MIC of cefotaxime (CTX) in combination with compound [10]: 1024 mg/L
- MIC of cefotaxime (CTX) in combination with compound [11]: 4 mg/L
- MIC of cefotaxime (CTX) in combination with compound [12]: 64 mg/L
- MIC of cefotaxime (CTX) in combination with compound [13]: 1024 mg/L
- MIC of cefotaxime (CTX) in combination with compound [14]: 64 mg/L
- IC50 (VIM-2): 20.2 ± 0.07 µM
- IC50 (AmpC β-lactamase): 3.88 µM and 3.9 µM
- IC50 (OXA-24): 38 ± 7.64 µM
- IC50 (CTX-M-15): 4.49 µM and 4.5 µM
